The text below walks through data of patent EP0642343B1, “Acridine carboxamides for the treatment of cancer” (XENOVA LIMITED, priority 1992, dated 1993).

Assay [1] concerns sublines of Jurkat leukaemia cells. Briefly: Cross-resistance of Jurkat sublines selected for resistance to amsacrine. It counts as cell-based, human. To be noted: two lines selected for resistance to amsacrine. The method, then:
Two of these lines had been selected for resistance to amsacrine, and were more than 100-fold cross-resistant to amsacrine but only 2- to 4-fold cross-resistant to DACA. […] We believe that this ability to overcome resistance mechanisms accounts for the different IC50 patterns observed with the human cell line panels.
Tumour cell lines were cultured in 96-well plates. […] Primary cultures were incubated at 37°C in sealed perspex boxes containing a humidified atmosphere of 5% CO2 and 5% O2 in nitrogen for 7 days. 5-Methyl-[^3H]-thymidine (20 Ci.mmol^-1; 0.04 µCi per well), thymidine and 5-fluorodeoxyuridine (each at final concentrations of 0.5 µM) were added in medium to cultures (20 µl per well) 24 h before terminating the cultures.
1989, 81:1088-1092, where growth, as indicated by staining or thymidine incorporation, corresponded to 50% of that of the control cultures.

Assay [2] has as its system primary human melanoma cultures. Briefly: cells. To be noted: Homo sapiens, read-out: mean IC50. The protocol:
Acridine carboxamide hydrochloride, synthesised in the Cancer Research Laboratory (Atwell G.J., et al., J.Med. Chem. 1987, 30, 664-669), and amsacrine isethionate, obtained from the Parke-Davis Division of the Warner-Lambert Company, Ann Arbor, USA, were dissolved in 50% v/v aqueous ethanol to make stock solutions of 2-5 mmol/l and stored at -20°C. Other cytotoxic drugs were available either from the NCI repository (Monks A., et al., J. Natl. Cancer Inst. 1991, 83, 757-766) or were obtained as described in Marshall E.S., et al., J. Natl. Cancer Inst. 1992, 84, 341-344 and Finlay, et al., Eur. J. Cancer din. Oncol. 1986, 22, 655-662. Cell lines were from the NCI repository except for MM-96 (Dr. R. Whitehead, Ludwig Institute, Melbourne, Australia), FME (Dr. K.M. Tveit, Norwegian Radium Hospital, Oslo, Norway) and Jurkat normal and multidrug-resistant lines (Dr. K. Snow and Dr. W. Judd, Department of Cellular and Molecular Biology, University of Auckland). Melanoma tissue was obtained from patients with pathologically confirmed metastatic and recurrent melanomas under Auckland Hospital Ethical Committee guidelines. Cells were released by digestion of tissue (at 50 mg.ml^-1) with collagenase (1 mg.ml^-1) and DNAase (50 µg.ml^-1) with continuous stirring at 37°C for 1 to 2 hours, and cultured as previously described (Marshall E.S., et al., J. Natl. Cancer Inst. 1992, 84, 341-344).
(§1) Tumour cell lines were cultured in 96-well plates. Growth of NCI cell lines was assessed using sulpho-rhodamine B staining (Skehan P., et al., J. Natl. Cancer Inst. 1990, 82, 1107-1112), that of the leukaemia lines with (4,5-dimethylthiazole-2-yl)-2,5-diphenyltetrazolium (MTT) staining (Mosmann T., J. Immun. Methods 1983, 65, 55-63) and that of the primary human tumour material by ^3H-thymidine incorporation (Marshall E.S., et al., J. Natl. Cancer Inst. 1992, 84, 341-344). Primary tumour material was cultured in 96-well plates in which the wells were coated with agarose to inhibit selectively the growth of normal cells. (Marshall E.S., et al., J. Natl. Cancer Inst. 1992, 84, 341-344). Primary cultures were incubated at 37°C in sealed perspex boxes containing a humidified atmosphere of 5% CO2 and 5% O2 in nitrogen for 7 days. 5-Methyl-[^3H]-thymidine (20 Ci.mmol^-1; 0.04 µCi per well), thymidine and 5-fluorodeoxyuridine (each at final concentrations of 0.5 µM) were added in medium to cultures (20 µl per well) 24 h before terminating the cultures. Cells were aspirated on to glass fibre filters using a multiple automated sample harvester (LKB Wallac OY Beta Harvester). The filter discs were washed for 15 seconds with water, dried, and the amount of tritium retained quantified by liquid scintillation.
(§2) IC50 values were defined as in Paull K.D., et al., J. Natl. Cancer Inst. 1989, 81:1088-1092, where growth, as indicated by staining or thymidine incorporation, corresponded to 50% of that of the control cultures. […] Variances of DELTA values were expressed as standard deviations in log10 units. Comparison of DELTA values was made using Pearson correlation coefficients. Resistance factors were defined as the ratios of IC50 values between the resistant line and the parent line. Statistical evaluation was performed either with NCI programmes, with RS/1 software (BBN Research Systems, Cambridge, MA, USA), or with Sigmaplot (Jandel Scientific, San Rafael, CA, USA).
DACA was also compared in a series of 12 primary melanoma cultures. Tissue was excised from human malignant melanomas and cultured using a modified 96-well assay system in which the cells were cultured on agarose and assayed for proliferation using the ^3H-thymidine incorporation assay as described in Marshall E.S., et al., J. Natl. Cancer Inst. 1992, 84, 341-344.

The subject of assay [3] is human cell lines. Briefly: Cytotoxicity under continuous drug exposure, mean over human cell lines. The note with it: read-out: mean IC50 value for human cell lines. It counts as cell-based. The method, then: The latter value compared with 2 µM for the 4-pyridyl-quinoline analogue, 0.76 µM for amsacrine, 0.1 µM for the amsacrine analogue 4'-(9-[4-[N-methylcarboxamido]-5-methyl]-acridinylamino)-methanesulphon-m-anisidide ("CI-921") and 81 µM for etoposide.

Assay [4] deals with LD. Nature of the assay: Resistance factor, drug-resistant Jurkat leukaemia subline. The class given is cell-based, human. The note with it: LD (from L by exposure to doxorubicin); ratio of IC50 resistant line / parent line. The method, then: as §1, §2
(§3) The effect of DACA on the growth of cultured cells was assessed by continuous drug exposure. […] Four multidrug-resistant cell lines, developed from JL and JB1 by in vitro exposure to increasing concentrations of doxorubicin (LD and B1D) or amsacrine (LA and B1A) (Finlay G.J., et al., J. Natl. Cancer Inst. 1990, 82, 662-667, Snow K., et al., Br. J. Cancer 1991, 63, 17-28) were tested.
(§4) DACA was compared with six other drugs including four topo II poisons, doxorubicin, mitozantrone, etopo-side and amsacrine. […]

For assay [5], the system named is B1D. Described as above. The class given is cell-based, human. To be noted: B1D (from B1 by exposure to doxorubicin); ratio of IC50 resistant line / parent line. The protocol:
as §1, §2, §3, §4

Assay [6] concerns B1A. Described as above. The class given is cell-based, human. To be noted: B1A (from B1 by exposure to amsacrine); ratio of IC50 resistant line / parent line. The protocol:
as §1, §2, §3, §4

Assay [7] has as its system LA. The assay is described as above. It counts as cell-based, human. The note with it: LA (from L by exposure to amsacrine); ratio of IC50 resistant line / parent line. The method, then: as §1, §2, §3, §4
Assay [8] deals with panel of cell lines encompassing a number of tumour types. Nature of the assay: NCI cell line panel, growth inhibition by protein staining. The class given is cell-based. The note with it: data provided by the National Cancer Institute. The method, then:
as §1, §2

The test system of assay [9] is advanced colon 38 tumours. Nature of the assay: Tumour growth delay, advanced subcutaneous colon 38 tumours in mice. The class given is in vivo. The note with it: maximum tolerated dose of the comparison drug. The method, then: Colon 38 carcinoma was obtained from the Mason Research Institute (Worchester, MA, USA) and was grown in BDF1 hosts. Tumour fragments (1 mm^3) were implanted subcutaneously in anaesthetised mice. Tumours had grown to the appropriate size 9 days after implantation. A melanoma tumour line (WADH) was developed in the Cancer Research Laboratory. Tumour cells were grown in culture and 1 x 10^6 cells were implanted intradermally into the flank of nude (C57BI/J genetic background) mice. Mice were grown under sterile surroundings until tumours were of appropriate size.
Tumours were measured 3x (colon 38) or 2x (xeno-graft) weekly with callipers and tumour volumes calculated as 0.52a^2b, where a and b were the minor and major tumour axes. Tumour growth delays were measured at a time when tumour volumes of treated and control animals had increased by 4-fold.
The effects of five compounds, • (i) DACA • (ii) N-[2-(dimethylamino)ethyl]-9-methoxyphen-azine-1-carboxamide (compound 28 of J. Med. Chem., 1987, 30, 843-851), • (iii) N-[2-(dimethylamino) ethyl]-2-phenylquino-line-8-carboxamide (compound 6 of J. Med. Chem. 1988, 31, 1048-1052), • (iv) N-[2-(dimethylamino)ethyl]-2-(4-pyridyl)-guinoline-8-carboxamide (compound 18 of J. Med. Chem., 1989, 32, 396-401), and • (v) N-[2-(dimethylamino)ethyl]-9-bromo-dibenzo-[1,4]-dioxin-1-carboxamide (compound 20 of J. Med. Chem. 1992, 35, 258-266) on the growth of advanced colon 38 tumours in mice was investigated by implanting tumour fragments subcutaneously and allowing them to grow until they had reached a diameter of 5-8 mm.

One may read the IC50 as the concentration needed to halve the response being measured.

As to `COc1cc(NS(C)(=O)=O)ccc1Nc1c2ccccc2nc2ccccc12` [amsacrine], in assay [1], the cross-resistance entry is “more than 100 fold”. Moreover, the values for the IC50 in assay [2], in assay [3] and in assay [8] were 128 nM, 760 nM and 520 nM, respectively. Besides, the Resistance factors in [4] is on record as 110; in assay [5], 8.8; in [6], 240; in assay [7] it was 130. Besides, the Growth delay in assay [9] was found to be 2 days.
